Test results taken from patent US20050072047A1, “Tobacco having reduced nicotine and nitrosamines” (priority 2002, published 2005).
Read-outs that look alike come from different tables or passages of the source.

How the values were obtained:
[1] = test system: tobacco plants; experiment: Nicotine and TSNA levels of field tobacco plants contacted with the compound, versus untreated plants; type: in vivo; details: compared to untreated tobacco plants
Protocol: To reduce the level of nicotine and/or nitrosamine in a cultivated crop or field of tobacco, a concentrated solution of 2,4-D in water (e.g., a 10% solution) with the wetting agent “Agral 60” (e.g., a 0.0006% v/v miscible oil emulsion) is prepared. A control solution containing the wetting agent without 2,4-D is also prepared. These solutions are diluted to 0.1, 1, 10, or 100 ppm of 2,4-D in the final spray solution. Control and experimental fields of tobacco (e.g., Burley, Virginia Flue, and Oriental varieties in separate test plots cultivated by conventional techniques for the particular varieties) at various ages of maturity (some of which have been topped) are sprayed with parallel dilutions of the wetting agent alone. Plants are then sprayed with the above solutions to the dripping-off point. Plants are allowed to continue growing normally for 14 days. Plants are then harvested and sample leaves (from the same position on the plants of the same age) are quick-frozen using liquid nitrogen. Nicotine levels are measured on these sample leaves using standard techniques.
A quick drying curing technique or a conventional curing technique particular to the variety being tested is employed to obtain cured leaves (non-green or yellow dried leaves). Conventional TSNA analysis is then performed on the cured leaves and stems and/or portions thereof (e.g., lamina and midrib of the leaf). By following this approach, the amount of 2,4-D to apply to a specific variety of tobacco, for a specific age of plant (topped or not topped) in the field to achieve a reduced nicotine and/or nitrosamine level is readily determined. In the following example, ethylene precursors, such as ethephon, are used to decrease jasmonate-induced nicotine and/or nitrosamine levels in tobacco.

[2] = test system: tobacco plants; details: early flowering stage; Fung et al. 1973; cited from earlier work
[3] = test system: lipoxygenase; details: potato; Kolomiets et al. 2001; cited from earlier work
[4] = test system: lipoxygenase; details: soybean; Creelman 1992; cited from earlier work
[5] = test system: jasmonic acid levels in plants; details: Schweizer et al. 1997; cited from earlier work

O=C(O)COc1ccc(Cl)cc1Cl [2,4-D, 2,4-Dichlorophenoxyacetic acid]
level of TSNAs in treated tobacco plants [1]: reduced levels
level of nicotine in treated tobacco plants [1]: reduced levels
harm to tobacco plants [2]: most harmful to tobacco plants during the early flowering stage

COc1ccc2cc([C@H](C)C(=O)O)ccc2c1 [Naproxen]
effect on lipoxygenase activity [3]: inhibit lipoxygenase activity
effect on lipoxygenase activity [4]: inhibit lipoxygenase activity

O=C(O)c1ccccc1O [salicylic acid, 2-hydroxybenzoic acid]
level of TSNAs in treated tobacco plants [1]: reduced amount
level of nicotine in treated tobacco plants [1]: reduced amount

Clc1ccc(N2N=N[C@@H]3[C@@H]4C[C@@H]([C@H]5N=N[C@@H]45)[C@@H]32)cc1 [tetcyclacis]
effect on jasmonic acid levels in plants [5]: inhibit jasmonic acid levels
level of TSNAs in treated tobacco plants [1]: reduced amount
level of nicotine in treated tobacco plants [1]: reduced amount
